Results published in ChEMBL document CHEMBL1201862, “PubChem BioAssay data set” (2004).
Calls of active or inactive are those of the source. Rule as the data show it, for most assays here: actives have a measured EC50 and inactives only a lower limit.

Legend:
[1] = target: T1, Heat shock factor protein 1 (Mus musculus, UniProt P38532); test: inhibition of MG132-induced HSE-luciferase signal, confirmation, cell-based, NIH3T3, luminescence, dose retest (AID 2382); type: functional;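 also: NIH3T3 fibroblasts with HSF1-driven luciferase reporter stressed by proteasome inhibitor MG132; luminescence from HSF1-driven luciferase expression after 8 hours of MG132 stress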
T1 sequence (P38532 whole entry): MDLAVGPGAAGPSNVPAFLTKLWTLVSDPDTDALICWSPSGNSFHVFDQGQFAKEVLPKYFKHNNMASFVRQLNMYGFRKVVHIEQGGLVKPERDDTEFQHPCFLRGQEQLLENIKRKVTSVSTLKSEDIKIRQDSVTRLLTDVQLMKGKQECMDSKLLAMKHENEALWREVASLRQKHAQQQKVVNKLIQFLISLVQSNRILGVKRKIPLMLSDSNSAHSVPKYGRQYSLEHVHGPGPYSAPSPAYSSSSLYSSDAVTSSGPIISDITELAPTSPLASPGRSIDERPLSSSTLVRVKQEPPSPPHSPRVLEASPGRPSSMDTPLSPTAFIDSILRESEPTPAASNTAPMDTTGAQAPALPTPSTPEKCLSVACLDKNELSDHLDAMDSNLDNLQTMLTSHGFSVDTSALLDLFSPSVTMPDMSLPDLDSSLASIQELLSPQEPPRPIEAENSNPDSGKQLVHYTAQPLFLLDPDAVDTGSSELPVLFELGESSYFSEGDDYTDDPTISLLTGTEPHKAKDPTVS

INS1 = test: beta cell apoptosis inhibitors, cytokine rescue, dose response, luminescence, retest (AID 449756); type: functional, cell-based; conditions: Rattus norvegicus;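 also: cell death triggered by IL-1 beta plus TNF-alpha plus IFN-gamma mixture; protective hits raise ATP signal compared with cytokine alone wells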
Protein RecA = target: T2, Protein RecA (Mycobacterium tuberculosis, UniProt P9WHJ3); test: Fluorescence Cell-Free Homogeneous Dose Retest to Identify Inhibitors of RecA-Intein Splicing Activity. [Related pubchem assays (depositor defined):AID2097, AID2223, AID489010, AID492950]; type: functional
T2 sequence (P9WHJ3 whole entry): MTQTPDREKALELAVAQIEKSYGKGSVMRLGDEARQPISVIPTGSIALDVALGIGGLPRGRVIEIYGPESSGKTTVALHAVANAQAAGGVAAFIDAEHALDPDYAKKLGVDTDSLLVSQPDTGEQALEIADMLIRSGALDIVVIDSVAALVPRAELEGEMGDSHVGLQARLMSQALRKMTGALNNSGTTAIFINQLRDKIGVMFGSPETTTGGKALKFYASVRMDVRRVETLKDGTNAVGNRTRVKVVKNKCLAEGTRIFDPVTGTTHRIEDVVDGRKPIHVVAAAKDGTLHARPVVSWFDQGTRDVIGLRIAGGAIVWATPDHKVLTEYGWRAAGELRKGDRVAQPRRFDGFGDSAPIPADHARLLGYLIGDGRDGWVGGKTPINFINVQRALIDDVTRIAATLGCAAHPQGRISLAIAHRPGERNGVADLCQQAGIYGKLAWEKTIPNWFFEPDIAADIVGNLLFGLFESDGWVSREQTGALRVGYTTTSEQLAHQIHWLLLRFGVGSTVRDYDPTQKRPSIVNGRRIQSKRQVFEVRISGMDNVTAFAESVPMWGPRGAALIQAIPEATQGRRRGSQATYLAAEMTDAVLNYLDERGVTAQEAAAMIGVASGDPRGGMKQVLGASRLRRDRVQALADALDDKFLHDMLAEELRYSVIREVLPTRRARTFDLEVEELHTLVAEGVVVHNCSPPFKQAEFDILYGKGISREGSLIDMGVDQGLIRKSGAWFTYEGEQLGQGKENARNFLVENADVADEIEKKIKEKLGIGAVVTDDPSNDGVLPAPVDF

[2] = target: T3, Replicative DNA helicase DnaB (Mycobacterium tuberculosis, UniProt P9WMR3); test: DnaB intein splicing inhibitors, dose response, biochemical, cell-free fluorescence (AID 449749); type: functional
T3 sequence (P9WMR3 whole entry): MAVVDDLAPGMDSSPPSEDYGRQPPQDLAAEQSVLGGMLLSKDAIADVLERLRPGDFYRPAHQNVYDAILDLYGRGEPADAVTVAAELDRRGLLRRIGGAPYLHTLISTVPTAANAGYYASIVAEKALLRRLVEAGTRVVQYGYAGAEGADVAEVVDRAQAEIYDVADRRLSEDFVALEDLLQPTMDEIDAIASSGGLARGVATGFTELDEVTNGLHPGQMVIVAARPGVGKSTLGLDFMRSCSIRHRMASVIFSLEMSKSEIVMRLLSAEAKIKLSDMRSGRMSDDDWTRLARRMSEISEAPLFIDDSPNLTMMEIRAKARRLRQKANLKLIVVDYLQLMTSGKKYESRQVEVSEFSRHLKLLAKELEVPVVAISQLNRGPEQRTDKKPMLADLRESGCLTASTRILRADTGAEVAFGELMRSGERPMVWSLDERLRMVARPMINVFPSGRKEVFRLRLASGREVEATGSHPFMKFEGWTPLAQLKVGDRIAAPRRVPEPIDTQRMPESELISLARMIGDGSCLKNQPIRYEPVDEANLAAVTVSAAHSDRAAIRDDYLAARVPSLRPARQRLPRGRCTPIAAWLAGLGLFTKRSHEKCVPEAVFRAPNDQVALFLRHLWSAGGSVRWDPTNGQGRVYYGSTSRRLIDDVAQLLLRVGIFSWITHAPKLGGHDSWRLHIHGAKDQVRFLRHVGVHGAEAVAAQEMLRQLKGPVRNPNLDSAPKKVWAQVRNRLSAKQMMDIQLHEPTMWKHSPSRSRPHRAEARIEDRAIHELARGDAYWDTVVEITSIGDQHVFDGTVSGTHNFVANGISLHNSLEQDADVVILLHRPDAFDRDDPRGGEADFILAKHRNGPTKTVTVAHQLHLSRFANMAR

[3] = Luminescence Cell-Based Dose Response HTS to Identify Activators of Luciferase Translation or Activity in H4 […] Cells. [Related pubchem assays: 1829 (Project Summary), 1814 (Primary HTS)]; type: functional
H4 = test: Luminescence Cell-Based Dose Response HTS to Identify Activators of 5'UTR Stem-Loop Driven Prion Protein mRNA Translation in H4 Neuroglioblastoma Cells. [Related pubchem assays: 1829 (Project Summary), 1814 (Primary HTS)]; type: functional; conditions: Homo sapiens
[4] = cytotoxicity toward NIH3T3 fibroblasts, dose response, counter-screen, cell-based, ATP luminescence, mouse fibroblasts (AID 2010); type: functional;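 also: cells exposed to compound for about 90 hours before reading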
[5] = inhibitors of intracellular T. cruzi replication, confirmation, NIH3T3 host cells, beta-gal luminescence (AID 2044); type: functional, cell-based;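 also: intracellular parasites grown in NIH/3T3 mouse fibroblasts as host cells; luminescent beta-galactosidase reporter signal from transgenic T. cruzi replicating inside host cells; inhibitors lower the luminescence signal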
Streptokinase A = target: T4, Streptokinase A (Streptococcus pyogenes serotype M1, UniProt P10520); test: S. pyogenes streptokinase expression inhibitors, potency, dose response, plasminogen activation absorbance, OD405 (AID 1914); type: functional, Streptococcus pyogenes M1 GAS;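 also: secreted streptokinase activity via plasminogen activation per viability signal from cell pellet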
T4 sequence (P10520 whole entry): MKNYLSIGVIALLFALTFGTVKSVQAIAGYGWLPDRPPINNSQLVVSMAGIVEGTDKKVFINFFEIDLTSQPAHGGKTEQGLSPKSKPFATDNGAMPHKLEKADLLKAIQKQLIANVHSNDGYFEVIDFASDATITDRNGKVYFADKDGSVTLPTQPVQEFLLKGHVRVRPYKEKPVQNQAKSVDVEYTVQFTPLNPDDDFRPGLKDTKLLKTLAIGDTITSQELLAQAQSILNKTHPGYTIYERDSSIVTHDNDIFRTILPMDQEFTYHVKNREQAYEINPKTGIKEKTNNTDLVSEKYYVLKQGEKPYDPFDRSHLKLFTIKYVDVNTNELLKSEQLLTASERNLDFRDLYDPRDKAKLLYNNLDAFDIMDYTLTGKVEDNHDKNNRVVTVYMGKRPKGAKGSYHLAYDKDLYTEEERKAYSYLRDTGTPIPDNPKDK

Streptococcus = test: Group A Streptococcus viability loss, dose response, counter-screen for streptokinase expression inhibitor project, luminescence, BacTiterGlo (AID 1915); type: functional, organism-based;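 also: potency for reduction of bacterial viability or growth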
[6] = system: Streptococcus sp. 'group A'; test: growth inhibition of control SK(-) GAS strain, dose response, counter-screen for streptokinase expression inhibitor project, luminescence, kanamycin, BacTiterGlo, confirmation (AID 1900); type: functional, organism-based
[7] = target: T5, Rac GTPase-activating protein 1 (Homo sapiens, UniProt Q9H0H5); test: MgcRacGAP GTPase-activating activity inhibitors, confirmation, biochemical, ADP Hunter fluorescence, primary and confirmatory (AID 624330); type: functional
T5 sequence (Q9H0H5 whole entry): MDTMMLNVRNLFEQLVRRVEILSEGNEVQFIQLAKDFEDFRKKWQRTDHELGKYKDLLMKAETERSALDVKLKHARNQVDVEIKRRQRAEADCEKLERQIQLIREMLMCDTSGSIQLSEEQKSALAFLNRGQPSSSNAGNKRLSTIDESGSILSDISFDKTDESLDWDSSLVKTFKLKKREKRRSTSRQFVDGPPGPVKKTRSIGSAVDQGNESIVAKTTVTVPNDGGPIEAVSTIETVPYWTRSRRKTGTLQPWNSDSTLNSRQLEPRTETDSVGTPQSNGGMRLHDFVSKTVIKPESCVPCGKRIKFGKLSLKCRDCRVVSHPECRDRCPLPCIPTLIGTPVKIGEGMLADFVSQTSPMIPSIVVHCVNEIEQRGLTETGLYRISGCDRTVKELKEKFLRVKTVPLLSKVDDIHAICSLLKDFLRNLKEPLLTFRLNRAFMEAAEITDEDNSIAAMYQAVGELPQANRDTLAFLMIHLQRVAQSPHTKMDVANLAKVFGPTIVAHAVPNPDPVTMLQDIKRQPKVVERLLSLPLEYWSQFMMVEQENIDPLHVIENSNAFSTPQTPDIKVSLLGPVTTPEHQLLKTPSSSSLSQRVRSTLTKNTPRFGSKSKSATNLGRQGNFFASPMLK

Compound: NC(=NOC(=O)Cc1ccccc1[N+](=O)[O-])c1cccnc1
- EC50 [1]: > 195 µM (not active)

Compound: COc1ccc(C2CC(c3cccc(C)c3)n3nc(N)nc3N2)cc1 (stereo unspecified)
- AC50 (INS1): > 260 µM (inactive)

Compound: Cn1c2c(c(=O)n(C)c1=O)[C@@]1(C(=O)Nc3ccccc31)C(C#N)=C(N)O2
- EC50 (Protein RecA): 17.5 µM (active)
- AC50 [2]: 34.1 µM (inconclusive)

Compound: CSCCC(NC(=O)CCC(=O)OCC(=O)[C@@]1(O)CCC2[C@@H]3CCC4=CC(=O)C=C[C@]4(C)C3[C@@H](O)C[C@@]21C)C(=O)O (stereo partly specified)
- EC50 [1]: 0.216 µM (active)

Compound: N#CC1=C(N)Oc2[nH]nc(-c3ccccc3)c2C1c1ccncc1 (stereo unspecified)
- EC50 (Protein RecA): 3.12 µM (active)
- AC50 [2]: 12.3 µM (active)

Compound: O=C(NCc1ccco1)C(=O)NCC(c1ccco1)N1CCOCC1 (stereo unspecified)
- EC50 [1]: > 195 µM (not active)

Compound: CC1CCN(C2=NC(=O)/C(=C/c3ccccc3F)S2)CC1
- EC50 [1]: > 195 µM (not active)

Compound: O=C(Cc1ccccc1)Nc1nc2ccccc2s1
- EC50 [1]: > 195 µM (not active)

Compound: COc1cc(OC)cc(C(=O)NCC(=O)OCc2nc3ccccc3s2)c1
- EC50 [3]: 14.6 µM (active)
- EC50 (H4): 0.165 µM (active)

Compound: O=C(COC(=O)/C=C/c1ccccc1[N+](=O)[O-])Nc1ccc(OCc2ccccc2)cc1
- EC50 [3]: 4.21 µM (active)
- EC50 (H4): 40.1 µM (active)

Compound: O=S(=O)(Nc1ccc2c(c1)OCCO2)c1cccc2nsnc12
- EC50 [1]: 4.32 µM (active)

Compound: Cc1cc(Nc2ccccc2)c2c([N+](=O)[O-])ccc(C)c2n1
- EC50 (Protein RecA): 0.551 µM (active)
- AC50 [2]: > 380 µM (inactive)
- EC50 [4]: > 30 µM (not active)
- EC50 [5]: 1.41 µM (active)

Compound: CC(=O)/C=C1\N(C)c2ccc(C)cc2C1(C)C
- AC50 (INS1): 5.32 µM (active)
- EC50 [4]: > 60 µM (not active)
- EC50 [5]: 1.93 µM (active)

Compound: CCOC(=O)C1C(=O)OC(C)(C)C1C(C)C(=O)c1ccc(C)cc1 (stereo unspecified)
- EC50 [1]: > 195 µM (not active)

Compound: CN(C)c1ccc(NC(S)=NC23CC4CC(CC(C4)C2)C3)cc1
- EC50 [3]: 20.6 µM (active)
- EC50 (H4): 17.1 µM (active)
- AC50 (INS1): 83.2 µM (active)

Compound: O=C(CCl)c1ccc(Cc2ncc(C(F)(F)F)cc2Cl)s1
- EC50 (Streptokinase A): 3.38 µM (active)
- EC50 (Streptococcus): 6.13 µM (active)
- EC50 (Protein RecA): 1.69 µM (active)
- EC50 [6]: 4.31 µM (active)
- AC50 [2]: 3.57 µM (active)

Compound: O=C(CC1C(=O)NCCN1Cc1ccc(-c2ccccc2)cc1)NC1CCC1 (stereo unspecified)
- AC50 (INS1): > 260 µM (inactive)

Compound: Cc1ccc(NC(=O)NC(=O)CN2CCN(c3ccc(O)cc3)CC2)c(C)c1
- EC50 [1]: > 195 µM (not active)
- IC50 [7]: 64.9 µM (active)

Compound: C=CCN1C(=O)NC(c2ccc(OC)cc2)(C(F)(F)F)S/C1=C(\C#N)c1nnc(N2CCOCC2)n1-c1ccccc1 (stereo unspecified)
- EC50 (Protein RecA): 9.73 µM (active)
- AC50 [2]: 6.76 µM (active)

Compound: O=C(COc1ccc(F)cc1)Nc1cc(Cl)ccc1-n1cncn1
- EC50 [1]: > 195 µM (not active)

Compound: CC(C)(C)C(=O)/C=C/c1ccc(Oc2ccccc2)cc1
- EC50 [1]: > 195 µM (not active)

Compound: O=C1C(/C=C(\O)c2ccccc2)=NCC2c3ccccc3CCN12 (stereo unspecified)
- EC50 [3]: 0.491 µM (active)
- EC50 (H4): 8.18 µM (active)

Compound: CN1N=C(C(C)(C)C)CS/C1=N/c1ccccc1
- AC50 (INS1): > 260 µM (inactive)
